Data set [1] concerns LTB4-mediated CD11b upregulation on human neutrophils. Briefly: LTB4-mediated CD11b upregulation on human neutrophils (flow cytometry, anti-CD11b-FITC). It is filed as cell-based. How it is done:
The following Assay method was used to evaluate the effects of 3 compounds for LTB4-mediated CD11b upregulation on human neutrophils:
Note: The Assay procedure described herein was modeled after a previously published method(viz., Prostaglandins, Leukot, Essent. Fatty Acids. 46:265-270. 1992, Biochem. Pharmacol. 49:1683-1690. 1995), the disclosure of which is incorporated herein by reference.
Approximately 1-2 mg of each compound was weighed and diluted to 1 mM in neat dimethyl sulphoxide (DMSO). These stocks were then diluted (using “doubling” dilutions) in assay buffer.
The assay buffer used throughout the studies consisted of Hanks Balanced Salts Solution (HBSS) with added 0.5% bovine serum albumin, low endotoxin (ICN Biomedicals Catalog #16-980-49). After dissolving the BSA in the HBSS, the buffer was membrane-filtered (0.2 μ) before use.
Human blood was drawn into 3×10 ml EDTA-K3 Vacutainer tubes, which were pooled and mixed in a 50 ml, blue cap polypropylene tube. Three ml portions of Mono-Poly Resolving medium (MPRM; ICN #16-980-49) were dispensed into 4 separate 13×100 glass disposable tubes. An additional 0.3 ml of PBS (phosphate buffered saline) was added to each tube and mixed with the MPRM by vigorous vortexing. Exactly 3.5 ml of the blood was carefully layered on top of the four MPRM-water mixtures. The tubes were gradually accelerated to 400×g and spun at this speed for 30 min at room temperature. Tubes were removed from the centrifuge and both the plasma and top cell (mononuclear) layers were removed and discarded. The second layer of cells was carefully collected, pooled and washed with assay buffer. The collected neutrophil cell preparation was then spun at 400×g for 5 min and re-washed once again. The cells were resuspended in assay buffer and counted using a Cell-Dyn 1600 cell counter (Abbott Diagnostics Co.). They were then resuspended in buffer at 9×10^6 cells/ml and held briefly for addition in a later step of the assay.
LTB4, (Biomol; ETOH stock @148.5 μM) was diluted to a 3.9 μM stock in assay buffer by dilution of 10 μl ETOH stock+371 μl assay buffer, mixed well and further diluted 1:100 (100 μl+9.9 ml buffer) to make a use stock of 39 nm in buffer for later use. The final concentration of LTB4 (3 nM) was determined after several experimental runs.
Exactly 10 μl of each putative compound/dilution and 10 μl of anti-CD11b-FITC (FITC=Fluorescein Isothiocyanate; Biosource Intl., #AHS1148) was carefully added to the bottom of 12×75 mm polypropylene tubes (Falcon #2063) as determined by the experimental design. Following this, 100 μl of the human neutrophil preparation (9E6/ml) was added and mixed well by vortexing. The compound/cell mixtures were incubated together for 15 minutes at room temperature. Following this incubation, 10 μl of diluted LTB4 stock was added (to make 3 nM final LTB4 concentration), mixed by vortexing and incubated in a 37° C. shaking water bath for 30 min. Following this the tubes were immediately placed on ice for 10 minutes. Following this 1 ml of diluted BD FACS Lyse (Becton Dickinson Fluorescense Activated Cell Sorting Lyse) was added to the tubes and vortexed. 10 minutes later the tubes were spun at 400×g at room temperature. After centrifugation, the tubes were aspirated and re-suspended in 1.0 ml of 1% paraformaldehyde solution.
The samples were then analyzed for fluorescence intensity (linear scale) using an EPICS XL flow cytometer and the “Mo-1 Isolated Neutrophil” protocol.
The mean fluorescence intensity (MFI) for each sample was computed using WinList software and expressed as percentage of maximum MFI.Microsoft Excel and further graphed and analyzed using linear regression.
On the technique in general: Flow cytometry measures light scatter and fluorescence of single cells or particles in a stream.

Setting [2] is: Homo sapiens, Neutrophil, isolated human neutrophils, 3 nM LTB4, semicolons separate individual assay determinations, read-out: CD11b/CD18 IC50.
The mark [3] stands for this setting: isolated human neutrophils, 3 nM LTB4, semicolons separate individual assay determinations, read-out: CD11b/CD18 IC50.
[4] abbreviates: Homo sapiens, Neutrophil, read-out: CD11b/CD18 IC50 (nM), isolated human neutrophils, 3 nM LTB4, semicolons separate individual assay determinations.
Setting [5] is: read-out: CD11b/CD18 IC50, isolated human neutrophils, 3 nM LTB4, semicolons separate individual assay determinations, sodium salt.

Structures are written as SMILES. Values joined by “and” are separate entries in the source; they are usually repeats but may differ in a detail not shown here. Equal values may be shown once. Where a name gives a salt, the structure may show the parent alone. Read-outs that look alike come from different tables or passages of the source.

Regarding `CCCc1c(OCCCOc2cc(O)c(C3CCOC3)cc2CC)cccc1Oc1ccccc1C(=O)[O-].[Na+]` (stereo not shown) (hydrate or solvate) [Example 15, 2-(3-{3-[2-Ethyl-5-hydroxy-4-(tetrahydrofuran-3-yl)phenoxy]propoxy}-2-propylphenoxy)benzoic acid sodium salt hemihydrate], the melting point (usually the temperature of the solid-liquid transition) was 67 to 71 °C.
For `CCCc1c(OCCCOc2cc(O)c(-c3ccsc3)cc2CC)cccc1Oc1ccccc1C(=O)O` (hydrate or solvate) [Example 17, 2-{3-[3-(2-Ethyl-5-hydroxy-4-thiophen-3-yl-phenoxy)propoxy]-2-propyl-phenoxy}benzoic acid hydrate], the melting point is 90 to 95 °C (dec.).
As to `CCCc1c(OCCCOc2cc(O)c(-c3ccc(F)cc3)cc2CC)cccc1Oc1ccccc1C(=O)O` [Compound A, reference compound], in data set [1] (Homo sapiens, Neutrophil, comparison compounds, isolated human neutrophils, 3 nM LTB4, A = average of 3 tests, read-out: IC-50 (nM) ± SEM), the IC50 stood at 1.7 ± 0.25 nM.
On to `CCCc1c(OCCCOc2cc(O)c(-c3ccc(F)cc3)cc2CC)cccc1Oc1ccccc1C#N` [Compound B, reference compound], for which the “IC-50 (nM) ± SEM” value in data set [1] (comparison compounds, isolated human neutrophils, 3 nM LTB4, A = average of 3 tests) is recorded as “not active”.
Regarding `CCCc1c(OCCCOc2cc(O)c(-c3cocn3)cc2CC)cccc1Oc1ccccc1C(=O)O` [Example 1, 2-{3-[3-(2-Ethyl-5-hydroxy-4-oxazol-4-yl-phenoxy)propoxy]-2-propyl-phenoxy}benzoic acid], the IC50 in data set [1] (setting [2]) is 480 nM.
Still for that read-out and setting: in the case of `CCCc1c(OCCCOc2cc(O)c(-c3cnc[nH]3)cc2CC)cccc1Oc1ccccc1C(=O)O` [Example 2, 2-(3-{3-[2-Ethyl-5-hydroxy-4-(3H-imidazol-4-yl)phenoxy]propoxy}-2-propyl-phenoxy)benzoic acid hydrochloride] it was 5880 nM.
For `CCCc1c(OCCCOc2cc(O)c(-c3cscn3)cc2CC)cccc1Oc1ccccc1C(=O)O` [Example 3, 2-{3-[3-(2-Ethyl-5-hydroxy-4-thiazol-4-yl-phenoxy)propoxy]-2-propyl-phenoxy}benzoic acid], the IC50 in data set [1] (setting [2]) is 353 nM; in data set [1] (setting [3]) it was 339 nM.
The like results for `CCCc1c(OCCCOc2cc(O)c(-c3ccn[nH]3)cc2CC)cccc1Oc1ccccc1C(=O)O` [Example 4, 2-(3-{3-[2-Ethyl-5-hydroxy-4-(2H-pyrazol-3-yl)phenoxy]propoxy}-2-propyl-phenoxy)benzoic acid] were, in that order, 74 nM and 117 nM.
`CCCc1c(OCCCOc2cc(O)c(-c3ccno3)cc2CC)cccc1Oc1ccccc1C(=O)O` [Example 5, 2-{3-[3-(2-ethyl-5-hydroxy-4-isoxazol-5-yl-phenoxy)propoxy]-2-propylphenoxy}benzoic acid]: the IC50 in data set [1] (setting [2]) turned out to be 175 nM; in data set [1] (setting [3]), 223 nM.
Take `CCCc1c(OCCCOc2cc(O)c(-c3cnn[nH]3)cc2CC)cccc1Oc1ccccc1C(=O)O` [Example 6]: the IC50 in data set [1] (setting [2]) turned out to be 260 nM.
In the case of `CCCc1c(OCCCOc2cc(O)c(-n3cccc3)cc2CC)cccc1Oc1ccccc1C(=O)OC` [Example 7, 2-{3-[3-(2-ethyl-5-hydroxy-4-pyrrol-1-yl-phenoxy)propoxy]-2-propyl-phenoxy}benzoic acid methyl ester], the IC50 in data set [1] (setting [2]) is 2020 nM; in data set [1] (setting [3]), 3790 nM.
On to `CCCc1c(OCCCOc2cc(O)c(-c3nc(Br)ns3)cc2CC)cccc1Oc1ccccc1C(=O)O` [Example 8, 2-(3-{3-[4-(3-bromo-[1,2,4]thiadiazol-5-yl)-2-ethyl-5-hydroxyphenoxy]propoxy}-2-propylphenoxy)benzoic acid], for which the IC50 in data set [1] (setting [2]) is more than 50000 nM.
As for `CCCc1c(OCCCOc2cc(O)c(-c3cccs3)cc2CC)cccc1Oc1ccccc1C(=O)O` [Example 9, 2-{3-[3-(2-Ethyl-5-hydroxy-4-thiophen-2-yl-phenoxy)propoxy]-2-propyl-phenoxy}benzoic acid sodium salt], the IC50 worked out at 23 nM in data set [1] (setting [4]) and 20 nM in data set [1] (setting [5]).
On to `CCCc1c(OCCCOc2cc(O)c(-c3cnn(C)c3)cc2CC)cccc1Oc1ccccc1C(=O)O` [Example 10, 2-(3-{3-[2-ethyl-5-hydroxy-4-(1-methyl-1H-pyrazol-4-yl)-phenoxy]propoxy}-2-propylphenoxy)benzoic acid], for which the IC50 in data set [1] (setting [3]) is 14 nM and 4.4 nM and 8.3 nM.
Regarding `CCCc1c(OCCCOc2cc(O)c(-c3nccs3)cc2CC)cccc1Oc1ccccc1C(=O)O` [Example 11, 2-{3-[3-(2-Ethyl-5-hydroxy-4-thiazol-2-yl-phenoxy)propoxy]-2-propyl-phenoxy}benzoic acid], in data set [1] (setting [3]), the IC50 is 620 nM and 2560 nM and 1010 nM.
On to `CCCc1c(OCCCOc2cc(O)c(-c3c(C)noc3C)cc2CC)cccc1Oc1ccccc1C(=O)O` [Example 12, 2-(3-{3-[4-(3,5-Dimethylisoxazol-4-yl)-2-ethyl-5-hydroxyphenoxy]propoxy}-2-propylphenoxy)benzoic acid sodium salt], for which the IC50 is 10000 nM in data set [1] (setting [4]) and 5700 nM in data set [1] (setting [5]).
With `CCCc1c(OCCCOc2cc(O)c(-c3ccco3)cc2CC)cccc1Oc1ccccc1C(=O)O` [Example 13, 2-{3-[3-(2-Ethyl-4-furan-2-yl-5-hydroxyphenoxy)propoxy]-2-propylphenoxy}-benzoic acid sodium salt], the IC50 in data set [1] (setting [4]) worked out at 39 nM; in data set [1] (setting [5]), 54 nM.
Regarding `CCCc1c(OCCCOc2cc(O)c(-c3ccoc3)cc2CC)cccc1Oc1ccccc1C(=O)O` [Example 14], the IC50 in data set [1] (setting [2]) was 31 nM; in data set [1] (setting [3]) it was 30 nM.
Consider `CCCc1c(OCCCOc2cc(O)c(C3CCOC3)cc2CC)cccc1Oc1ccccc1C(=O)O` (stereo not shown) [Example 15, 2-(3-{3-[2-Ethyl-5-hydroxy-4-(tetrahydrofuran-3-yl)phenoxy]propoxy}-2-propylphenoxy)benzoic acid sodium salt hemihydrate], for which, in data set [1] (setting [4]), the IC50 was found to be 27 nM.
For the compound `CCCc1c(OCCCOc2cc(O)c(C3CCCN3)cc2CC)cccc1Oc1ccccc1C(=O)O` (stereo not shown) [Example 16, 2-{3-[3-(2-Ethyl-5-hydroxy-4-pyrrolidin-2-yl-phenoxy)propoxy]-2-propyl-phenoxy}benzoic acid hydrochloride hydrate], the IC50 in data set [1] (setting [2]) is 1080 nM; in data set [1] (isolated human neutrophils, 3 nM LTB4, semicolons separate individual assay determinations, hydrochloride hydrate, read-out: CD11b/CD18 IC50) it was 837 nM.
As to `CCCc1c(OCCCOc2cc(O)c(-c3ccsc3)cc2CC)cccc1Oc1ccccc1C(=O)O` [Example 17, 2-{3-[3-(2-Ethyl-5-hydroxy-4-thiophen-3-yl-phenoxy)propoxy]-2-propyl-phenoxy}benzoic acid hydrate], the IC50 was 11 nM in data set [1] (setting [2]); 5.6 nM and 8 nM in data set [1] (isolated human neutrophils, 3 nM LTB4, semicolons separate individual assay determinations, hydrate, read-out: CD11b/CD18 IC50).
